The target in the assay is T1, mouse EphA4 (binding to mouse Ephrin A1) (Mus musculus, UniProt Q03137).
T1 construct: made in house; host or cells: HEK293EBNA cells
The experiment in a line: Mouse EphA4-mouse ligand binding inhibition ELISA (Ephrin A1-Fc). Particulars: mouse Ephrin A1 and Ephrin B2; 0.03-1000 μM. As for the experimental part: Antibody A obtained in Example 1 was evaluated for its inhibitory activity against the binding between mouse EphA4 and its mouse ligand according to the following steps. Each well of a 96-well plate (Nunc) was coated with an anti-alkaline phosphatase antibody (Thermo Fisher Scientific). After incubation overnight at 4° C., each well was blocked with 1% BlockAce (DS Pharma Biomedical) at room temperature for 1 hour. After washing with 0.05% Tween 20/PBS (Thermo Fisher Scientific) three times, the mouse EphA4 extracellular region-SEAP-His protein obtained by the method of Example 1 was added (final concentration: 10 nM) to each well and incubated at room temperature for 1 hour. After washing three times, ligands and serially diluted antibody A (0, 0.001, 0.003, 0.01, 0.03, 0.1, 0.3, 1,3, 10, 30, 100, 300, and 1000 nM) or a known EphA4 inhibitor KYL peptide (KYLPYWPVLSSL, 0, 0.003, 0.01, 0.03, 0.1, 0.3, 1, 3, 10, 30, and 100 μM, its synthesis was outsourced to Hokkaido System Science) or compound 1 (0, 0.03, 0.1, 0.3, 1,3, 10, 30, 100, 300, and 1000 μM, Formula 1, Matrix Scientific) were added to each well. The ligands used were mouse Ephrin A1-Fc chimera (R&D Systems, final concentration: 20 nM) and mouse Ephrin B2-Fc chimera (R&D Systems, final concentration: 0.6 nM). […] The absorbance at 450 nm was read using a microplate reader (Molecular Devices).
Background: ELISA stands for enzyme-linked immunosorbent assay.

T1 sequence (Q03137 with tags, fused parts or gaps): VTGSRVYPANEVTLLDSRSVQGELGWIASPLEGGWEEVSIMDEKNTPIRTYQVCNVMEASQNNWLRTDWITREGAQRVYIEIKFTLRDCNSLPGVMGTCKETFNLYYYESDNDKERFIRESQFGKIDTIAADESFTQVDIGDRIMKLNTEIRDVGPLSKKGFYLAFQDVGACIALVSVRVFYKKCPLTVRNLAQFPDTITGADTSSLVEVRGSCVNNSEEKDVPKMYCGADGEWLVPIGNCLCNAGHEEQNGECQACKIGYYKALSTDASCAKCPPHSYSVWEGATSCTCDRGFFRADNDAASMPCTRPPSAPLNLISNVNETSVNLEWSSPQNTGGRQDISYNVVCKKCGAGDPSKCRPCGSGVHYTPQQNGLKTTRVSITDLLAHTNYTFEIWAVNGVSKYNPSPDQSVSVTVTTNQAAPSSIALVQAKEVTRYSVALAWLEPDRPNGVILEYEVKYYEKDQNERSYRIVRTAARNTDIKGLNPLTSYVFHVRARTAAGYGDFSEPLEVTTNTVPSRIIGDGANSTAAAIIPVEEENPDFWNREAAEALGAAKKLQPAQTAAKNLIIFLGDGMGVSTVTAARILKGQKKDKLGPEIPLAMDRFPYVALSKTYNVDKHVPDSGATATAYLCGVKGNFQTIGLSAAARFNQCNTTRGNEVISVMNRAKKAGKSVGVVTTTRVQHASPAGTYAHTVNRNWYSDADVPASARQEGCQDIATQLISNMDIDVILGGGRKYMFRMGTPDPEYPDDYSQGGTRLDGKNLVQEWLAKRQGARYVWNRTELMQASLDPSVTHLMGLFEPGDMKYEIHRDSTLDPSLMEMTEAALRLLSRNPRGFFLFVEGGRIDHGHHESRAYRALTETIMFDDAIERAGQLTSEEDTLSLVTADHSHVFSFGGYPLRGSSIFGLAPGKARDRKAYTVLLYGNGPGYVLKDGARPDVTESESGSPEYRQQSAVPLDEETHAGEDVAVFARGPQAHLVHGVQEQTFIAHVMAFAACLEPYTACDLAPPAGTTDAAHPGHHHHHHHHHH

Turning to `Cc1ccc(C)n1-c1ccc(C(=O)O)c(O)c1` [Compound 1, reference compound], the “inhibition of binding between mouse EphA4 and mouse ligand (in words)” value is “weaker activity, and no concentration dependence was found”.
